Measurements: patent US6214795A, “Peptide compounds useful for modulating FGF receptor activity” (Praecis Pharmaceuticals, Inc., priority 1996, dated 2001)
Like-named read-outs stand apart in the source and are kept apart here. Residues, ends and D or L forms follow the SMILES beside them. No end group written: not given here. *: point of attachment. Biotin = O=C1N[C@H]2[C@H](CS[C@H]2CCCCC(=O)*)N1

Tests used:
FGFR2-IIIC = FGFR2-IIIC (Homo sapiens, UniProt P21802); experiment: FGF receptor binding assay: inhibition of 125I-bFGF binding to FGF receptor
Description: The ability of a peptide compound to bind to an FGF receptor can be determined using one or both of the receptor binding assays described in this example, which measure the ability of a test compound to inhibit the binding of radiolabeled bFGF to the FGF receptor. The first assay is a cell-based assay, utilizing FGF receptor-expressing cells. Cells expressing an FGF receptor are seeded on a 96 well plate (50,000 cells/well) and incubated overnight at 37° C., 5% CO2. The cells are then washed once with binding buffer (Dulbecco's Modified Eagle's Medium (DMEM) with HEPES, gelatin and heparin). A test peptide is diluted to the desired concentration in binding buffer with heparin (15 U/ml) and added to the cells (25 μl per well). ^125 I-bFGF (50,000 cpm/well; Amersham Life Sciences), diluted in binding buffer with heparin, is added to each well (25 μl per well so that final volume is 50 μl). The cells are incubated in a humidified chamber at 4° C. for 3 hours. The cells are washed twice with binding buffer to remove unbound material. The washed cells are then dissolved in 100 μl of 1N NaOH and counted in a gamma counter. The ability of a test compound to bind to FGFR is evidenced by the reduced binding of ^125 I-bFGF to the cells in the presence of the test compound as compared to the binding of ^125 I-bFGF to the cells in the absence of the test compound.
A second FGFR binding assay utilizes biotinylated soluble FGFR. Biotinylated FGFR is mixed in an eppendorf tube with ^125 I-bFGF and a test compound in binding buffer. The tubes are placed on an eppendorf roller at 4° C. for 1.5 hours. Magnetic streptavidin beads (CPG, Inc.) are prepared by washing twice with binding buffer. After the 1.5 hour incubation of the tubes, 15 μl of magnetic streptavidin beads are added to each tube and continued on the eppendorf roller for 10 minutes at 4° C. to allow the strepavidin to interact with the biotinylated FGFR. The tubes are removed from the roller and spun down in a microfuge for 2 minutes at 3000 rpm. Using magnets, the magnetic beads are washed twice with binding buffer. 100 μl of binding buffer is added to each tube and the contents are moved to a 12×75 mm test tube. The contents (i.e., strepavidin beads, with biotinylated FGFR and ^125 I-bFGF bound thereto) are counted in a Gamma counter. The ability of a test compound to bind to FGFR is evidenced by the reduced binding of ^125 I-bFGF to the biotinylated FGFR in the presence of the test compound as compared to the binding of ^125 I-bFGF to the biotinylated FGFR in the absence of the test compound.

NIH 3T3 cells = type: cell-based
Description: A second functional assay for FGFR is a proliferation assay, based on the fact that NIH 3T3 cells show enhanced growth in the presence of increasing concentrations of bFGF. NIH 3T3 cells are cultured (e.g., about 3 days) with bFGF (10 nM) in the presence or absence of a test peptide compound. Cell growth is quantitated using a standard method for detecting cell growth, such as tritiated thymidine incorporation or uptake of 3, ([…])2,5-diphenyl-tetrazolium bromide (MTT). MTT (commercially available from Sigma Chemical Co.) is a chromogenic substrate that is converted from yellow to blue in viable cells, which can be detected spectrophotometrically.

p42-MAP kinase = experiment: Signal transduction assay: bFGF-induced phosphorylation/activation of MAP kinase in NIH 3T3 cells; type: cell-based
Description: The effect of peptide compounds on the functional activity of an FGF receptor can be evaluated in one or both of the functional assays described in this example. The first assay is a signal transduction assay, exploiting the fact that bFGF binding to FGFR initiates a phosphorylation cascade that includes the phosphorylation of MAP kinase (MAP-K). Accordingly, the ability of a test compound to modulate bFGF-induced phosphorylation of MAP-K is examined. NIH 3T3 cells are synchronized to quiescence by growing in medium containing 0.5% fetal bovine serum (FBS) for 2 days. The cells are then shifted into fresh 0.5% FBS-containing medium for 2 hours to reduce the basal level of MAP-K phosphorylation before the experiment. Test peptide compounds are dissolved in fresh dimethyl sulfoxide (DMSO) to 100 mg/ml and series dilutions are made in DMSO. […] Phosphorylation of MAP-K in the 3T3 cells is initiated by incubating the cells with the bFGF-containing medium in the presence or absence of test peptide for 15 minutes at 37° C. The phosphorylation is stopped by washing with cells with PBS and lysing the cells with sodium […] (SDS)-containing buffer. Cell lysates are separated on 12% SDS polyacrylamide gels and the proteins are transferred onto PVDF membranes. Membrane-bound cellular proteins are probed with a rabbit anti-phosphoMAP-K antibodies, followed by a goat anti-rabbit secondary antibody, labeled with horse radish peroxidase. The blots are then detected by the enhanced chemiluminescence (ECL) method.

[1] = Table 3 peptides, inhibition of bFGF binding to FGFR2-IIIC
[2] = Table 3 peptides, values given in mM
[3] = Table 5 peptides (bFGF-binding peptides)
[4] = Table 3 peptides, bFGF-induced MAP-K phosphorylation, read-out: MAP-K

Chain of FGFR2-IIIC (P21802 22-377 limits assumed, species assumed): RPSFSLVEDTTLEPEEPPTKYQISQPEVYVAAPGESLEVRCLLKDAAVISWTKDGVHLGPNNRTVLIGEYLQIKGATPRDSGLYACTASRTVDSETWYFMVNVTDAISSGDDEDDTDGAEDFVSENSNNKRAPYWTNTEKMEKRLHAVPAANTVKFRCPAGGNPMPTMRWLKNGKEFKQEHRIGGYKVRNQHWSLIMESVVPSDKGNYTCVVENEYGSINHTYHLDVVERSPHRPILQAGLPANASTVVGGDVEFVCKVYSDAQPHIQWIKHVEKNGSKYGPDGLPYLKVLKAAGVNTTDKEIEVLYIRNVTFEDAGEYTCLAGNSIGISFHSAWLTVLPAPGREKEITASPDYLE

Row | Molecule | IC50 (FGFR2-IIIC; [1]) | IC50 (NIH 3T3 cells) | other results
1 | GYYLLWMVG [Compound 564, H-GYYLLWMVG-OH*TFA] | > 0.1 mM |  | 
2 | GSLMRMG-NH2 [Compound 663, H-GSLMRMG-NH*TFA] |  |  | IC50 (FGFR2-IIIC; [2]): > 1 mM
3 | LRQYLMRFR-NH2 [Compound 670, H-LRQYLMRFR-NH*TFA] | ~0.12 mM |  | 
4 | ADGAAGYDWDDLLSGAA-NH2 [Compound 475, H-ADGAAGYDWDDLLSGAA-NH*TFA] |  | > 100 µM | IC50 (FGFR2-IIIC; [3]): > 0.1 mM
5 | GYLYLYMVG [Compound 656, H-GYLYLYMVG-OH*TFA] | > 0.1 mM |  | 
6 | GKALEWYKSLMRMG-NH2 [Compound 661, H-GKALEWYKSLMRMG-NH*TFA] | ~0.3 mM |  | 
7 | CC(=O)NCC(=O)N[C@@H](CS)C(=O)N[C@H](C(=O)N[C@@H](CC(=O)O)C(=O)N[C@@H](CC(C)C)C(=O)N[C@@H](Cc1ccc(O)cc1)C(=O)N[C@@H](Cc1c[nH]cn1)C(=O)N[C@@H](Cc1ccc(O)cc1)C(=O)N[C@H](C(=O)N[C@@H](Cc1ccc(O)cc1)C(=O)N[C@@H](CS)C(=O)NCC(N)=O)C(C)C)C(C)C [Compound 514, Acetyl-GCVDLYHYVYCG-NH] (Ac-GCVDLYHYVYCG-NH2) |  | 10 to 100 µM | Effect on proliferative activity of bFGF (NIH 3T3 cells; NIH 3T3 cells): antagonists of the proliferative activity of bFGF; IC50 (p42-MAP kinase; Table 5 peptides, read-out: MAP-K): ~50 µM
8 | CC(C)C[C@H](NC(=O)[C@H](CC(=O)O)NC(=O)[C@@H](NC(=O)[C@H](CS)NC(=O)CNC(=O)[C@H](C)NC(=O)[C@H](C)NC(=O)CNC(=O)[C@H](CC(=O)O)NC(=O)[C@H](C)N)C(C)C)C(=O)N[C@@H](Cc1ccc(O)cc1)C(=O)N[C@@H](Cc1c[nH]cn1)C(=O)N[C@@H](Cc1ccc(O)cc1)C(=O)N[C@H](C(=O)N[C@@H](Cc1ccc(O)cc1)C(=O)N[C@@H](CS)C(=O)NCC(=O)NCC(=O)N[C@@H](C)C(=O)N[C@@H](C)C(N)=O)C(C)C [Compound 507] (H-ADGAAGCVDLYHYVYCGGAA-NH2) |  | 10 to 100 µM | Effect on proliferative activity of bFGF (NIH 3T3 cells; NIH 3T3 cells): antagonists of the proliferative activity of bFGF
9 | GFLMMYMMG [Compound 566, H-GFLMMYMMG-OH*TFA] | > 0.1 mM |  | 
10 | bFGF: basic fibroblast growth factor, the FGF receptor ligand used as stimulus and unlabeled competitor [reference compound] |  |  | Activation of MAP-K (p42-MAP kinase; 1 and 10 nM, without test peptide, FIG. 3): 40-60%
11 | YLRQYLMRFR-NH2 [Compound 671, H-YLRQYLMRFR-NH*TFA] | ~0.008 mM |  | Binding IC50 (FGFR2-IIIC; [1]): does not appear to further increase the IC50
12 | GYFQYMALYG [Compound 567, H-GYFQYMALYG-OH*TFA] | > 0.1 mM |  | 
13 | GYLAQYMARG-NH2 [Compound 662, H-GYLAQYMARG-NH*TFA] | ~0.3 mM |  | 
14 | GDVFLSMYQFSVIG [Compound 622, H-GDVFLSMYQFSVIG-OH*TFA] | > 0.1 mM |  | 
15 | GAHYLRQYMMRFLG-NH2 [Compound 669, H-GAHYLRQYMMRFLG-NH*TFA] | ~0.02 mM |  | 
16 | ADGAAGSWGDWERSGDWFGGAA-NH2 [Compound 509] |  | > 100 µM | IC50 (FGFR2-IIIC; [3]): > 0.1 mM
17 | CC(=O)NCC(=O)N[C@@H](CS)C(=O)N[C@H](C(=O)N[C@@H](CC(C)C)C(=O)N[C@@H](CC(C)C)C(=O)N[C@@H](Cc1ccc(O)cc1)C(=O)N[C@@H](CC(=O)O)C(=O)N[C@@H](CCC(=O)O)C(=O)N[C@@H](CCCNC(=N)N)C(=O)N[C@H](C(=O)N[C@@H](CS)C(=O)NCC(N)=O)[C@@H](C)O)C(C)C [Compound 513, Acetyl-GCVLLYDERTCG-NH] (Ac-GCVLLYDERTCG-NH2) |  | > 100 µM | 
18 | GFLGKYMESLMRMG-NH2 [Compound 659, H-GFLGKYMESLMRMG-NH*TFA] | ~0.3 mM |  | 
19 | GAHYLRQYLMRFRG-NH2 [Compound 668, H-GAHYLRQYLMRFRG-NH*TFA] | ~0.003 mM |  | 
20 | AHYLRQYLMRFR-NH2 [Compound 673, H-AHYLRQYLMRFR-NH*TFA] | ~0.008 mM |  | 
21 | GAHYLRQYLMRFLG-NH2 [Compound 658, H-GAHYLRQYLMRFLG-NH*TFA] | ~0.008 mM |  | IC50 (NIH 3T3 cells; NIH 3T3 cells, 10 nM bFGF, FIG. 6, read-out: Concentration that half maximally reduces bFGF-induced proliferation): 40 µM; IC50 (p42-MAP kinase; 1 nM bFGF, FIG. 5, read-out: Concentration that half maximally antagonizes bFGF activation of MAP-K): ~3 µM; IC50 (p42-MAP kinase; [4]): ~1 µM
22 | Ac-GHDGEMYG-OH [Compound 660, Acetyl-GHDGEMYG-OH] |  |  | IC50 (FGFR2-IIIC; [2]): > 1 mM
23 | Ac-GSWGDWERSGDWFG-NH2 [Compound 512, Acetyl-GSWGDWERSGDWFG-NH] |  | > 100 µM | IC50 (FGFR2-IIIC; [3]): > 0.1 mM
24 | GAHNLRQYLMRFLG [Compound 623, H-GAHNLRQYLMRFLG-OH*TFA] | ~0.12 mM | ~100 µM | IC50 (p42-MAP kinase; [4]): ~50 µM; Effect on activation of MAP-K by bFGF (p42-MAP kinase; increasing concentrations of compound): clearly antagonized
25 | CC(C)C[C@H](NC(=O)[C@H](CC(C)C)NC(=O)[C@H](CC(=O)O)NC(=O)[C@H](CC(=O)O)NC(=O)[C@H](Cc1c[nH]c2ccccc12)NC(=O)[C@H](CC(=O)O)NC(=O)[C@H](Cc1ccc(O)cc1)NC(=O)CNC(=O)[C@H](C)NC(=O)[C@H](C)NC(=O)CNC(=O)[C@H](CC(=O)O)NC(=O)[C@H](C)NC(=O)CCCC[C@@H]1SC[C@@H]2NC(=O)N[C@@H]21)C(=O)NCC(=O)NCC(=O)N[C@@H](C)C(=O)N[C@@H](C)C(N)=O [Compound 478, Biotin-ADGAAGYDWDDLLGGAA-NH] (Biotin-ADGAAGYDWDDLLGGAA-NH2) |  | > 100 µM | IC50 (FGFR2-IIIC; [3]): > 0.1 mM
26 | ADGAAGYDWDDLLGGAA-NH2 [Compound 477, H-ADGAAGYDWDDLLGGAA-NH*TFA] |  | > 100 µM | IC50 (FGFR2-IIIC; [3]): > 0.1 mM
27 | HYLRQYLMRFR-NH2 [Compound 672, H-HYLRQYLMRFR-NH*TFA] | ~0.008 mM |  | 
28 | CC(C)C[C@H](NC(=O)[C@H](CC(C)C)NC(=O)[C@H](CC(=O)O)NC(=O)[C@H](CC(=O)O)NC(=O)[C@H](Cc1c[nH]c2ccccc12)NC(=O)[C@H](CC(=O)O)NC(=O)[C@H](Cc1ccc(O)cc1)NC(=O)CNC(=O)[C@H](C)NC(=O)[C@H](C)NC(=O)CNC(=O)[C@H](CC(=O)O)NC(=O)[C@H](C)NC(=O)CCCC[C@@H]1SC[C@@H]2NC(=O)N[C@@H]21)C(=O)N[C@@H](CO)C(=O)NCC(=O)N[C@@H](C)C(=O)N[C@@H](C)C(N)=O [Compound 476, Biotin-ADGAAGYDWDDLLSGAA-NH] (Biotin-ADGAAGYDWDDLLSGAA-NH2) |  | > 100 µM | IC50 (FGFR2-IIIC; [3]): > 0.1 mM
